# Measurements as given in patent US6468979B1, “Erythromycin derivatives with antibiotic activity” (Zambon Group S.p.A., priority 1998, dated 2002).
# Key:
# S. specie 916 = experiment: In vitro antibacterial activity (MIC), broth dilution micromethod; format: cell-based, Staphylococcus spp.; settings: erythromycin-resistant (inducible) strain, MHB, 37° C., 18 hours
# Procedure: (§1) The minimum inhibitory concentrations (MIC), with respect to Gram-positive bacteria (erythromycin-sensitive and -resistant strains) and Gram-negative bacteria, were determined by means of the broth-scaler dilution micromethod in twin series [National Committee for Clinical Laboratory Standards, 1990; Methods for dilution antimicrobial susceptibility tests for bacteria that grow aerobically; Approved standards M7-A2-NCCLS, Villanova, Pa.], using Mueller Hinton Broth (MHB) as culture medium.
# (§2) Azithromycin [The Merck Index, XIIth Edition, No. 946) was used as reference macrolide.
# (§3) The MIC values, expressed in μg/ml, were determined after incubating the microplates at 37° C. for 18 hours, by evaluating the lowest concentration of antibiotic capable of inhibiting bacterial growth.
# S. coag. Neg. 845 = experiment: as above; format: cell-based, Staphylococcus spp.; settings: erythromycin-resistant strain, MHB, 37° C., 18 hours
# Procedure: as §1, §2, §3
# S. epidermis 60 = experiment: as above; format: cell-based, Staphylococcus spp.; settings: erythromycin-resistant (inducible) strain, MHB, 37° C., 18 hours
# Procedure: as §1, §2, §3
# S. haemolyticus 161 = experiment: as above; format: cell-based, Staphylococcus haemolyticus; settings: erythromycin-resistant strain, MHB, 37° C., 18 hours
# Procedure: as §1, §2, §3
# S. pneumoniae 1047 = experiment: as above; format: cell-based, Streptococcus pneumoniae; settings: erythromycin-resistant strain, MHB with 5% horse serum, 37° C., 18 hours
# Procedure: as §1
# (§4) In the case of Streptococcus pneumoniae, the medium was supplemented with 5% horse serum.
# as §2, §3
# S. pneumoniae 1051 = experiment: as above; format: cell-based, Streptococcus pneumoniae; settings: erythromycin-resistant strain, MHB with 5% horse serum, 37° C., 18 hours
# Procedure: as §1, §4, §2, §3
# S. pneumoniae 1035 = experiment: as above; format: cell-based, Streptococcus pneumoniae; settings: erythromycin-resistant strain, MHB with 5% horse serum, 37° C., 18 hours
# Procedure: as §1, §4, §2, §3
# S. aureus 77 = experiment: as above; format: cell-based, Staphylococcus aureus; settings: erythromycin-resistant strain, MHB, 37° C., 18 hours
# Procedure: as §1, §2, §3
# S. aureus 929 = experiment: as above; format: cell-based, Staphylococcus aureus; settings: erythromycin-resistant strain, MHB, 37° C., 18 hours
# Procedure: as §1, §2, §3
# [1] = tested on: Streptococcus pyogenes C203; experiment: In vivo therapeutic efficacy in experimental pulmonary infection in mice; settings: CD1 mice, death observed for 7 days, probit analysis; for PD50 1 hour after infection: single oral dose 1 hour after intranasal infection; for PD50 24 hours before infection: single oral dose 24 hours before intranasal infection
# Procedure: The therapeutic efficacy, expressed as the 50% protective dose (PD50), of the compounds of formula (I) was evaluated in the experimental pulmonary infection induced in mice by Streptococcus pyogenes C203.
# Charles River albino mice (strain CD1) weighing 23-25 g were used, kept in groups of 6 to a cage and fed normally with a standard diet and water ad libitum.
# A suspension of Streptococcus pyogenes C203 (equal to about 10^8 CFU) in tryptone broth (0.05 ml) was administered intranasally to each mouse, anaesthetized with a mixture of ethyl ether and chloroform.
# The compounds of formula I and the clarithromycin reference compounds were administered orally in a single dose, as a 0.5% suspension Methocel® 1 hour after the infection and 24 hours before the infection.
# Observation of the death of the mice was continued for 7 days after the infection.
# The PD50, expressed as μmol/kg, was calculated by means of probit analysis.
Molecule,"MIC (S. specie 916; Staphylococcus, 916) [µg/mL]",MIC (S. coag. Neg. 845; Staphylococcus) [µg/mL],"MIC (S. epidermis 60; Staphylococcus, 60) [µg/mL]","MIC (S. haemolyticus 161; Staphylococcus haemolyticus, 161) [µg/mL]","MIC (S. pneumoniae 1047; Streptococcus pneumoniae, 1047) [µg/mL]","MIC (S. pneumoniae 1051; Streptococcus pneumoniae, 1051) [µg/mL]","MIC (S. pneumoniae 1035; Streptococcus pneumoniae, 1035) [µg/mL]","MIC (S. aureus 77; Staphylococcus aureus, 77) [µg/mL]","MIC (S. aureus 929; Staphylococcus aureus, 929) [µg/mL]",PD50 1 hour after infection [1] [µmol/kg],PD50 24 hours before infection [1] [µmol/kg],MIC S. specie 916* (S. specie 916) [µg/mL],MIC S. coag. Neg. 845 (S. coag. Neg. 845) [µg/mL],MIC S. epidermis 60* (S. epidermis 60) [µg/mL],MIC S. haemolyticus 161 (S. haemolyticus 161) [µg/mL],MIC S. aureus 77 (S. aureus 77) [µg/mL],MIC S. aureus 929 (S. aureus 929) [µg/mL],MIC S. pneumoniae 1047 (S. pneumoniae 1047) [µg/mL],MIC S. pneumoniae 1051 (S. pneumoniae 1051) [µg/mL],MIC S. pneumoniae 1035 (S. pneumoniae 1035) [µg/mL]
"CC[C@H]1OC(=O)[C@H](C)[C@@H](O[C@H]2C[C@@](C)(OC)[C@@H](O)[C@H](C)O2)[C@H](C)[C@@H](O[C@@H]2O[C@H](C)C[C@H](N(C)C)[C@H]2O)[C@](C)(O)C[C@@H](C)CN(C)[C@H](C)[C@@H](O)[C@]1(C)O [Azithromycin, reference compound]",> 64,> 64,> 64,> 64,2,16,4,> 64,> 64,–,–,–,–,–,–,–,–,–,–,–
"CC[C@H]1OC(=O)[C@H](C)[C@@H](O[C@H]2C[C@@](C)(OC)[C@@H](O)[C@H](C)O2)[C@H](C)[C@@H](O[C@@H]2O[C@H](C)C[C@H](N(C)C)[C@H]2O)[C@](C)(OC)C[C@@H](C)C(=O)[C@H](C)[C@@H](O)[C@]1(C)O [Clarithromycin, reference compound]",–,–,–,–,–,–,–,–,–,7.38,>85.6,–,–,–,–,–,–,–,–,–
"CC[C@H]1OC(=O)[C@H](C)[C@@H](O[C@H]2C[C@@](C)(OC)[C@@H](O)[C@H](C)O2)[C@H](C)[C@@H](O[C@@H]2O[C@H](C)C[C@H](N(C)C)[C@H]2O)[C@](C)(O)C[C@@H](C)/C(=N\OCCNCCCCCCNCc2nc(-c3nccs3)cs2)[C@H](C)[C@@H](O)[C@]1(C)O [Compound 1, erythromycin A (E)-9-[O-[2-[6-[([2,4′]bithiazole-2′-ylmethyl)amino]hexylamino]ethyl]oxime]]",–,–,–,–,–,–,–,–,–,22.9,15.5,2,>64,2,>64,>64,>64,–,–,–
CC[C@H]1OC(=O)[C@H](C)[C@@H](O[C@H]2C[C@@](C)(OC)[C@@H](O)[C@H](C)O2)[C@H](C)[C@@H](O[C@@H]2O[C@H](C)C[C@H](N(C)C)[C@H]2O)[C@](C)(O)C[C@@H](C)/C(=N\OCCN(C)CCCCCCNCc2nc(-c3nccs3)cs2)[C@H](C)[C@@H](O)[C@]1(C)O [Compound 2],–,–,–,–,–,–,–,–,–,–,–,4,>64,2,>64,>64,>64,–,–,–
"CC[C@H]1OC(=O)[C@H](C)[C@@H](O[C@H]2C[C@@](C)(OC)[C@@H](O)[C@H](C)O2)[C@H](C)[C@@H](O[C@@H]2O[C@H](C)C[C@H](N(C)C)[C@H]2O)[C@](C)(O)C[C@@H](C)/C(=N\OCCNCCCCCCNCc2csc(-c3cccs3)n2)[C@H](C)[C@@H](O)[C@]1(C)O [Compound 4, Erythromycin A (E)-9-[O-[2-[6-[(2-thiophen-2-ylthiazol-4-ylmethyl)amino]hexylamino]ethyl]oxime]]",–,–,–,–,–,–,–,–,–,11.4,14.3,8,16,0.5,16,64,16,–,–,–
"CC[C@H]1OC(=O)[C@H](C)[C@@H](O[C@H]2C[C@@](C)(OC)[C@@H](O)[C@H](C)O2)[C@H](C)[C@@H](O[C@@H]2O[C@H](C)C[C@H](N(C)C)[C@H]2O)[C@](C)(O)C[C@@H](C)/C(=N\OCCNCCCCCCNCc2csc(-n3ccnc3)n2)[C@H](C)[C@@H](O)[C@]1(C)O [Compound 5, Erythromycin A (E)-9-[O-[2-[6-[(2-imidazol-1-ylthiazol-4-ylmethyl)amino]hexylamino]ethyl]oxime]]",–,–,–,–,–,–,–,–,–,–,–,4,>64,1,>64,>64,>64,4,2,4
CC[C@H]1OC(=O)[C@H](C)[C@@H](O[C@H]2C[C@@](C)(OC)[C@@H](O)[C@H](C)O2)[C@H](C)[C@@H](O[C@@H]2O[C@H](C)C[C@H](N(C)C)[C@H]2O)[C@](C)(O)C[C@@H](C)/C(=N\OCCN(C)CCCCCCNCc2csc(-n3ccnc3)n2)[C@H](C)[C@@H](O)[C@]1(C)O [Compound 6],–,–,–,–,–,–,–,–,–,10.1,16.0,4,>64,2,>64,>64,>64,1,0.25,0.5
"CC[C@H]1OC(=O)[C@H](C)[C@@H](O[C@H]2C[C@@](C)(OC)[C@@H](O)[C@H](C)O2)[C@H](C)[C@@H](O[C@@H]2O[C@H](C)C[C@H](N(C)C)[C@H]2O)[C@](C)(O)C[C@@H](C)/C(=N\OCCNCCCCCCNCc2csc(-n3cncn3)n2)[C@H](C)[C@@H](O)[C@]1(C)O [Compound 8, Erythromycin A (E)-9-[O-[2-[6-[(2-[1,2,4]triazol-1-ylthiazol-4-ylmethyl)amino]hexylamino]ethyl]oxime]]",–,–,–,–,–,–,–,–,–,–,–,8,>64,2,>64,>64,>64,2,1,4
"CC[C@H]1OC(=O)[C@H](C)[C@@H](O[C@H]2C[C@@](C)(OC)[C@@H](O)[C@H](C)O2)[C@H](C)[C@@H](O[C@@H]2O[C@H](C)C[C@H](N(C)C)[C@H]2O)[C@](C)(O)C[C@@H](C)/C(=N\OCCNCCCCCCNCc2csc(-n3cccn3)n2)[C@H](C)[C@@H](O)[C@]1(C)O [Compound 10, Erythromycin A (E)-9-[O-[2-[6-[(2-pyrazol-1-ylthiazol-4-ylmethyl)amino]hexylamino]ethyl]oxime]]",–,–,–,–,–,–,–,–,–,–,–,4,32,1,64,>64,32,0.5,0.25,1
"CC[C@H]1OC(=O)[C@H](C)[C@@H](O[C@H]2C[C@@](C)(OC)[C@@H](O)[C@H](C)O2)[C@H](C)[C@@H](O[C@@H]2O[C@H](C)C[C@H](N(C)C)[C@H]2O)[C@](C)(O)C[C@@H](C)/C(=N\OCCN(C)CCCCCCNCc2csc(-n3cccn3)n2)[C@H](C)[C@@H](O)[C@]1(C)O [Compound 11, Erythromycin A (E)-9-[O-[2-[methyl[6-[(2-pyrazol-1-ylthiazol-4-ylmethyl]amino]hexyl]amino]ethyl]oxime]]",–,–,–,–,–,–,–,–,–,11.2,25.4,8,>64,2,>64,>64,>64,0.5,0.125,0.0625
"Erythromycin A (E)-9-[O-[2-[6-[(2-[1,2,3]thiadiazol-5-ylthiazol-4-ylmethyl]amino]hexylamino]ethyl]oxime] [Compound 3]",–,–,–,–,–,–,–,–,–,4.5,25.4,0.5,64,1,64,>64,64,–,–,–
